Where two headings read alike, the source gives them in different places.
Biological target: T1, human CXCR3 (N-delta 4) (Homo sapiens, UniProt P49682)
T1 construct: CD8 leader; Flag tag; expressed in transfected cells; membrane preparation
T1 sequence (P49682 5-368 limits assumed): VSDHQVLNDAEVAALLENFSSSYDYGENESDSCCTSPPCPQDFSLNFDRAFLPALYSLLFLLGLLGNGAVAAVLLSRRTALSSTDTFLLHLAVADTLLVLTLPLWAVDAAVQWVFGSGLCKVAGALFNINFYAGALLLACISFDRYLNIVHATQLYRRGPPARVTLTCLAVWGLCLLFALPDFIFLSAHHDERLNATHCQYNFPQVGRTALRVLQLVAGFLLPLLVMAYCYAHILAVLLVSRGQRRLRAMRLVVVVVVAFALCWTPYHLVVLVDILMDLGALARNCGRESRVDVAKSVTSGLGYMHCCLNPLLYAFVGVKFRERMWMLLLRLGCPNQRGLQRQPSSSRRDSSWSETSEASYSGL
Test: Human CXCR3 (N-delta 4) scintillation proximity binding assay ([125I] IP-10 displacement)
Excerpt: The inventive compounds can readily be evaluated to determine activity at The CXCR3 receptors by known methods, such as, for example, Development of Human CXCR3 (N-delta 4) Binding Assay.
Cloning and Expression of Human CXCR3 (N-Delta 4):
The DNA encoding human CXCR3 was cloned by PCR using human genomic DNA (Promega, Madison, Wis.) as a template. The PCR primers were designed based on the published sequence of human orphan receptor GPR9 (1) with incorporated restriction sites, a Kozak consensus sequence, CD8 leader and Flag tag. The PCR product was subcloned into the mammalian expression vector pME18Sneo, a derivative of the SR-alpha expression vector (designated as pME18Sneo-hCXCR3 (N-delta 4).
IL-3-dependent mouse pro-B cells Ba/F3 were transfected by electroporation in 0.4 ml Dulbecco's PBS containing 4×10^6 cells with 20 μg of pME18Sneo-hCXCR3 (N-delta 4) plasmid DNA. Cells were pulsed at 400 Volts, 100 OHMs, 960 μFd. The transfected cells were under selection with 1 mg/ml G418 (Life Technologies, Gaithersburg, Md.). G418-resistant Ba/F3 clones were screened for CXCR3 expression by specific binding of [^125I] IP-10 (NEN Life Science Products, Boston, Mass.).
Preparation of Ba/F3-hCXCR3 (N-Delta 4) Membranes
Ba/F3 cells expressing human CXCR3 (N-delta 4) were pelleted and resuspended in the lysis buffer containing 10 mM HEPES, pH 7.5 and Complete® protease inhibitors (1 tablet per 100 ml) (Boehringer Mannheim, Indianapolis, Ind.) at a cell density of 20×10^6 cells per ml. After 5 minutes incubation on ice, cells were transferred to 4639 cell disruption bomb (Parr Instrument, Moline, Ill.) and applied with 1,500 psi of nitrogen for 30 minutes on ice. Large cellular debris was removed by centrifugation at 1,000×g. Cell membrane in the supernatant was sedimented at 100,000×g. The membrane was resuspended in the lysis buffer supplemented with 10% sucrose and stored at −80° C. Total protein concentration of the membrane was determined by BCA method from Pierce (Rockford, Ill.).
Human CXCR3 (N-Delta 4) Scintillation Proximity Assay (SPA)
For each assay point, 2 μg of membrane was preincubated for 1 hr with 300 μg wheat germ agglutinin (WGA) coated SPA beads (Amersham, Arlington Heights, Ill.) in the binding buffer (50 mM HEPES, 1 mM CaCl2, 5 mM MgCl2, 125 mM NaCl, 0.002% NaN3, 1.0% BSA) at room temperature. The beads were spun down, washed once, resuspended in the binding buffer and transferred to a 96-well Isoplate (Wallac, Gaithersburg, Md.). 25 pM of [^125I] IP-10 with tested compounds in a series of titration were added to start the reaction. After 3 hr reaction at room temperature, the amount of [^125I]; IP-10 bound to the SPA beads was determined with a Wallac 1450 Microbeta counter.

[1] = Human CXCR3, Table 2, read-out: Ki
[2] = human CXCR3, Table 1, read-out: Ki rating

## CC[C@H]1CN(c2ccc(-c3nnc(N)o3)nc2C)CCN1C1CCN(Cc2ccc(OC(F)(F)F)cc2)CC1 [Compound 3]
[1]
  Ki: 0.5 nM
[2]
  Ki: < 25 nM

## CC[C@H]1CN(c2ccc(-c3nnc(N)o3)nc2C)CCN1C1CCN(C(=O)c2ccc(F)c(F)c2)CC1 [Compound 9]
[2]
  Ki: < 25 nM

## CC[C@H]1CN(c2ccc(-c3nnc(N)o3)nc2C)[C@H](C)CN1C1CCN(C(=O)c2ccc(Cl)c(F)c2)CC1 [Compound 13]
[2]
  Ki: 25 to 100 nM

## CCNc1nnc(-c2ccc(N3CCN(C4CCN(C(=O)c5ccc(F)c(F)c5)CC4)[C@@H](CC)C3)c(C)n2)o1 [Compound 8]
[2]
  Ki: < 25 nM

## CC[C@H]1CN(c2ccc(-c3nnc[nH]3)nc2C)CCN1C1CCN(C(=O)c2ccc(Cl)c(F)c2)CC1 [Compound 6]
[2]
  Ki: < 25 nM

## CCNc1nnc(-c2ccc(N3CCN(C4CCN(C(=O)c5ccc(Cl)cc5)CC4)[C@@H](CC)C3)c(C)n2)o1 [Compound 4]
[2]
  Ki: < 25 nM

## CCNc1nnc(-c2ccc(N3CCN(C4CCN(C(=O)c5ccc(Cl)c(F)c5)CC4)[C@@H](CC)C3)c(C)n2)o1 [Compound 5]
[2]
  Ki: < 25 nM

## CC[C@H]1CN(c2ccc(-c3nnc(N)o3)nc2C)[C@H](C)CN1C1CCN(C(=O)c2ccc(Cl)cc2)CC1 [Compound 12]
[2]
  Ki: 25 to 100 nM

## CCNc1nnc(-c2ccc(N3C[C@H](CC)N(C4CCN(C(=O)c5ccc(Cl)cc5)CC4)C[C@H]3C)c(C)n2)o1 [Compound 11]
[2]
  Ki: 25 to 100 nM

## CCNc1nnc(-c2ccc(N3C[C@H](CC)N(C4CCN(Cc5ccc(Cl)cc5)CC4)C[C@H]3C)c(C)n2)o1 [Compound 2]
[1]
  Ki: 0.4 nM
[2]
  Ki: < 25 nM

## CC[C@H]1CN(c2ccc(-c3nnc(N)o3)nc2C)CCN1C1CCN(Cc2ccc(Cl)cc2)CC1 [Compound 14]
[1]
  Ki: 0.3 nM
[2]
  Ki: < 25 nM

## CCNc1nnc(-c2ccc(N3CCN(C4CCN(Cc5ccc(Cl)cc5)CC4)[C@@H](CC)C3)c(C)n2)o1 [Compound 1]
[2]
  Ki: < 25 nM
Human CXCR3, read-out: Ki
  Ki: 0.2 nM

## CCNc1nnc(-c2ccc(N3C[C@H](CC)N(C4CCN(C(=O)c5ccc(Cl)c(F)c5)CC4)C[C@H]3C)c(C)n2)o1 [Compound 10]
[2]
  Ki: 25 to 100 nM

## CC[C@H]1CN(c2ccc(-c3nnc(N)o3)nc2C)CCN1C1CCN(C(=O)c2ccc(Cl)cc2)CC1 [Compound 15]
[1]
  Ki: 2.4 nM
[2]
  Ki: < 25 nM

## CC[C@H]1CN(c2ccc(-c3nnc(N)o3)nc2C)CCN1C1CCN(C(=O)c2ccc(Cl)c(F)c2)CC1 [Compound 7]
[2]
  Ki: < 25 nM

Source: patent US7786124B2, “Heterocyclic substituted pyridine compounds with CXCR3 antagonist activity” (Schering Corporation, priority 2006, dated 2010)
